In brackets after ≈: the same amount, converted by molar mass.
Tests used:
Experiment in all cases: IC50 determination, MTS assay, 72 h (Example 1)
Assay type in all cases: cell-based
Details in all cases: 72 hours of drug exposure
[1] = test system: AGS human gastric carcinoma cell line
Method: (§1) The human gastric carcinoma cell lines selected for this assay were the following: Hs746T, HGC-27, and AGS cell lines. Hs746T and AGS cell lines were grown in Dulbecco's modified Eagle's medium (DMEM) supplemented with 10% Fetal Bovine Serum (FBS), 1.5 g/L sodium bicarbonate, 4.5 g/L glucose and 4 mM L-glutamine. HGC-27 cell line was grown in Iscove's modified Dulbecco's medium (IMDM) supplemented with 20% FBS and 2 mM L-glutamine.
(§2) The day before plating, the cells were fed with fresh, complete growth media. On the harvest (plating) day, cells were counted by Trypan Blue exclusion staining method.
(§3) Cells were harvested and seeded in 96 well microtiter plates at 10,000 cells density in 150 μL of media and incubated for 24 hours to allow the cells to attach before drug addition. To collect reference data, the MTS assay was done on untreated cells at time 0 (after incubation of cells for 24 hours).
(§4) The cytotoxic effect was measured by the MTS Assay (Tetrazolium), which is a colorimetric method for determining the number of viable cells. After the incubation period (24 hours for the Day 0 plate and 72 hours for the Test and Control plates), 25 μL of MTS+PMS solution was added to each microtiter well and incubated for 4 hours at 37° C. Plates were then removed from incubator and placed on plate shaker for 5 minutes (covered with aluminum foil for protection from light). Optical densities were read at 490 nm on spectrophotometer plate reader.
(§5) IC50 values were calculated from an average of two to four assays for each of the test agents.

[2] = test system: HGC-27 human gastric carcinoma cell line
Method: as §1, §2, §3, §4, §5

[3] = test system: Hs746T human gastric carcinoma cell line
Method: as §1, §2, §3, §4, §5

CCc1c2c(nc3ccc(O)cc13)-c1cc3c(c(=O)n1C2)COC(=O)[C@]3(O)CC [SN38, 7-ethyl-10-hydroxycamptothecin]
IC50 [1]: 0.00549 µg/mL (≈ 0.014 µM) | IC50 [2]: 0.246 µg/mL (≈ 0.627 µM) | IC50 [3]: 0.0582 µg/mL (≈ 0.148 µM)
